Results: patent US8883788B2, “Fused heterocyclic ring compound” (Takeda Pharmaceutical Company Limited, priority 2010, dated 2014)

The compounds below were run against T1, human PDE10A enzyme (Homo sapiens, UniProt Q9Y233) (assay: PDE10A enzyme activity inhibition test (SPA)). Conditions: compound 1 μM, substrate [3H]cGMP, 60 min at room temperature, read-out: inhibition rate (%) (1 μM).
T1 construct: Human PDE10A full-length gene was transfected into Sf9 or COS-7 cells; His-tag; made in house; host or cells: Sf9 or COS-7 cells
T1 sequence (Q9Y233 267-1055): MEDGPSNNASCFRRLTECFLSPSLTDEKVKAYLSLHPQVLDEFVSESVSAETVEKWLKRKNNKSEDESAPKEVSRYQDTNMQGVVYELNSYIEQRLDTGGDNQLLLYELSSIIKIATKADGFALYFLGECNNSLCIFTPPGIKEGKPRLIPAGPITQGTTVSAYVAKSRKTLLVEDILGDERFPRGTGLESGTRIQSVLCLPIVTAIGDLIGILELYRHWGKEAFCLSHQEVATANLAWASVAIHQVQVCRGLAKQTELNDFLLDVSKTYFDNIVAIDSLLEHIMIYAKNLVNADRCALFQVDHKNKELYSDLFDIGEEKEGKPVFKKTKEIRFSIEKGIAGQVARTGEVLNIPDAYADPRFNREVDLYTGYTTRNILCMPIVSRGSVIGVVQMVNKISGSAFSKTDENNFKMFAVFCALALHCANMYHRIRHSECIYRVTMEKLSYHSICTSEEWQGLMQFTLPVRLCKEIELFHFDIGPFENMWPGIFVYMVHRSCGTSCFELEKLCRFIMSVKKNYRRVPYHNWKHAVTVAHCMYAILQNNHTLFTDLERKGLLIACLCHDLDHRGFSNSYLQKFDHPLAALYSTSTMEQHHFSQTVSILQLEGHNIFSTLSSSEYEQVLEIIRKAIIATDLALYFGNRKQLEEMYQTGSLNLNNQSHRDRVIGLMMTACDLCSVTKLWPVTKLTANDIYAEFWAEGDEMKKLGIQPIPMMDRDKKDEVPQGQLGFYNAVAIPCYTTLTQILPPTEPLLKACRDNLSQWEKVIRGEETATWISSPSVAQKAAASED
Type: biochemical
Description: Human PDE10A full-length gene was transfected into Sf9 or COS-7 cells. The cells were disrupted and centrifuged, and human PDE10A enzyme was obtained from the residue. The enzyme extracted from Sf9 cells was partially purified using His-tag affinity column. The enzyme was stored at −70° C. until use. The PDE activity was measured using an SPA (Scintillation Proximity Assay) (GE Healthcare). To measure the inhibitory activity of the compound, 10 μL of serially diluted compound was reacted with 20 μL of PDE enzyme in an assay buffer (50 mM HEPES-NaOH, 8.3 mM MgCl2, 1.7 mM EGTA, 0.1% BSA (pH 7.4)) […] at room temperature. The final concentration of DMSO in the reaction mixture was 1 percent. The compounds were evaluated in duplicate in 96-well half-area plates (Corning). To start the reaction, 10 μL of substrate [^3H] cGMP (25 and 50 nM; GE Healthcare and PerkinElmer, respectively) was added to 40 μL. After 60 min of reaction at room temperature, yttrium SPA beads containing zinc sulphate were added (6 mg/mL, 20 μL) to terminate the reaction. After standing still for 1 hr, the measurement was performed using a scintillation counter (PerkinElmer) and the inhibition rate was calculated. The inhibition rate was calculated based on the control containing enzyme and DMSO as 0% and the control without enzyme as 100%.
Work on `Cn1cc(OCCCc2nc3ccccc3n2C)c(=O)c(-c2ccnn2-c2ccccc2)n1` [Example 1, 1-methyl-5-[3-(1-methyl-1H-benzimidazol-2-yl)propoxy]-3-(1-phenyl-1H-pyrazol-5-yl)pyridazin-4(1H)-one] yielded an inhibition at 1 µM of 96%. `Cn1cc(OCCN2CCn3c2nc2ccccc23)c(=O)c(-c2ccnn2-c2ccccc2)n1` [Example 2, 5-[2-(2,3-dihydro-1H-imidazo[1,2-a]benzimidazol-1-yl)ethoxy]-1-methyl-3-(1-phenyl-1H-pyrazol-5-yl)pyridazin-4(1H)-one] was tested, and the inhibition at 1 µM was 101%. With `Cn1c(CCCOc2cn(CC3CC3)nc(-c3ccnn3-c3ccccc3)c2=O)nc2ccccc21` [Example 3, 1-(cyclopropylmethyl)-5-[3-(1-methyl-1H-benzimidazol-2-yl)propoxy]-3-(1-phenyl-1H-pyrazol-5-yl)pyridazin-4(1H)-one] the inhibition at 1 µM was 98%. Work on `O=c1c(OCCN2CCn3c2nc2ccccc23)cn(CC2CC2)nc1-c1ccnn1-c1ccccc1` [Example 4, 1-(cyclopropylmethyl)-5-[2-(2,3-dihydro-1H-imidazo[1,2-a]benzimidazol-1-yl)ethoxy]-3-(1-phenyl-1H-pyrazol-5-yl)pyridazin-4(1H)-one] yielded an inhibition at 1 µM of 100%. `Cn1nccc1-c1nn(-c2ccccc2)cc(OCCCc2nc3ccccc3n2C)c1=O` [Example 5, 5-[3-(1-methyl-1H-benzimidazol-2-yl)propoxy]-3-(1-methyl-1H-pyrazol-5-yl)-1-phenylpyridazin-4(1H)-one] was tested, and the inhibition at 1 µM was 95.4%. `Cn1nccc1-c1nn(-c2ccccc2)cc(OCCN2CCn3c2nc2ccccc23)c1=O` [Example 6, 5-[2-(2,3-dihydro-1H-imidazo[1,2-a]benzimidazol-1-yl)ethoxy]-3-(1-methyl-1H-pyrazol-5-yl)-1-phenylpyridazin-4(1H)-one] showed an inhibition at 1 µM of 97.2%. For `Cn1nccc1-c1nn(-c2ccccc2)cc(OCCc2ccc3ccccc3n2)c1=O` [Example 7, 3-(1-methyl-1H-pyrazol-5-yl)-1-phenyl-5-(2-quinolin-2-ylethoxy)pyridazin-4(1H)-one], the inhibition at 1 µM was 96.8%. In the case of `Cn1nccc1-c1nn(-c2ccccc2)cc(OCc2ccc3ccccc3n2)c1=O` [Example 8, 3-(1-methyl-1H-pyrazol-5-yl)-1-phenyl-5-(quinolin-2-ylmethoxy)pyridazin-4(1H)-one], the inhibition at 1 µM is reported as 68.4%. In the case of `O=c1cnn(-c2cccc(C(F)(F)F)c2)cc1OCc1ccc2ccccc2n1` [Example 9, 5-(quinolin-2-ylmethoxy)-1-[3-(trifluoromethyl)phenyl]pyridazin-4(1H)-one], the inhibition at 1 µM is reported as 6.5%. `Cn1cc(OCCOc2nc3ccccc3n2C)c(=O)c(-c2ccnn2-c2ccccc2)n1` [Example 10, 1-methyl-5-{2-[(1-methyl-1H-benzimidazol-2-yl)oxy]ethoxy}-3-(1-phenyl-1H-pyrazol-5-yl)pyridazin-4(1H)-one] showed an inhibition at 1 µM of 95%. In the case of `Cn1cc(OCCCc2cn3ccccc3n2)c(=O)c(-c2ccnn2-c2ccccc2)n1` [Example 11, 5-(3-imidazo[1,2-a]pyridin-2-ylpropoxy)-1-methyl-3-(1-phenyl-1H-pyrazol-5-yl)pyridazin-4(1H)-one], the inhibition at 1 µM is reported as 100%. `Cn1cc(OCCCc2nc3cccnc3n2C)c(=O)c(-c2ccnn2-c2ccccc2)n1` [Example 12, 1-methyl-5-[3-(3-methyl-3H-imidazo[4,5-b]pyridin-2-yl)propoxy]-3-(1-phenyl-1H-pyrazol-5-yl)pyridazin-4(1H)-one] showed an inhibition at 1 µM of 102%. `Cn1c(CCCOc2cn(CC3CC3)nc(-c3ccnn3-c3ccccc3)c2=O)nc2cccnc21` [Example 13, 1-(cyclopropylmethyl)-5-[3-(3-methyl-3H-imidazo[4,5-b]pyridin-2-yl)propoxy]-3-(1-phenyl-1H-pyrazol-5-yl)pyridazin-4(1H)-one] gave an inhibition at 1 µM of 100%. `Cn1c(OCCOc2cn(CC3CC3)nc(-c3ccnn3-c3ccccc3)c2=O)nc2ccccc21` [Example 14, 1-(cyclopropylmethyl)-5-{2-[(1-methyl-1H-benzimidazol-2-yl)oxy]ethoxy}-3-(1-phenyl-1H-pyrazol-5-yl)pyridazin-4 (H)-one] gave an inhibition at 1 µM of 98%. `O=c1c(OCCOc2ccc3ccccc3n2)cn(CC2CC2)nc1-c1ccnn1-c1ccccc1` [Example 15, 1-(cyclopropylmethyl)-3-(1-phenyl-1H-pyrazol-5-yl)-5-[2-(quinolin-2-yloxy)ethoxy]pyridazin-4(1H)-one] was tested, and the inhibition at 1 µM was 13%. In the case of `O=c1c(OCCCc2cn3ccccc3n2)cn(CC2CC2)nc1-c1ccnn1-c1ccccc1` [Example 16, 1-(cyclopropylmethyl)-5-(3-imidazo[1,2-a]pyridin-2-ylpropoxy)-3-(1-phenyl-1H-pyrazol-5-yl)pyridazin-4(1H)-one], the inhibition at 1 µM is reported as 98%. With `O=c1c(OCc2ccc3ccccc3n2)cn(CC2CC2)nc1-c1ccnn1-c1ccccc1` [Example 17, 1-(cyclopropylmethyl)-3-(1-phenyl-1H-pyrazol-5-yl)-5-(quinolin-2-ylmethoxy)pyridazin-4(1H)-one] the inhibition at 1 µM was 60%. `O=c1c(OCc2ccc3cccnc3c2)cn(CC2CC2)nc1-c1ccnn1-c1ccccc1` [Example 18, 1-(cyclopropylmethyl)-3-(1-phenyl-1H-pyrazol-5-yl)-5-(quinolin-7-ylmethoxy)pyridazin-4(1H)-one] was tested, and the inhibition at 1 µM was 20%. For `O=c1c(OCCn2ccn3ccnc23)cn(CC2CC2)nc1-c1ccnn1-c1ccccc1` [Example 19, 1-(cyclopropylmethyl)-5-[2-(1H-imidazo[1,2-a]imidazol-1-yl)ethoxy]-3-(1-phenyl-1H-pyrazol-5-yl)pyridazin-4(1H)-one], the inhibition at 1 µM was 94%. `Cn1c(CCCOc2cn(C3CCC3)nc(-c3ccnn3-c3ccccc3)c2=O)nc2ccccc21` [Example 20, 1-cyclobutyl-5-[3-(1-methyl-1H-benzimidazol-2-yl)propoxy]-3-(1-phenyl-1H-pyrazol-5-yl)pyridazin-4(1H)-one] gave an inhibition at 1 µM of 99%. In the case of `Cn1c(CCCOc2cn(C3CCC3)nc(-c3ccnn3-c3ccccc3)c2=O)nc2cccnc21` [Example 21, 1-cyclobutyl-5-[3-(3-methyl-3H-imidazo[4,5-b]pyridin-2-yl)propoxy]-3-(1-phenyl-1H-pyrazol-5-yl)pyridazin-4 (H)-one], the inhibition at 1 µM is reported as 107%. For `O=c1c(OCCN2CCn3c2nc2ccccc23)cn(C2CCC2)nc1-c1ccnn1-c1ccccc1` [Example 22, 1-cyclobutyl-5-[2-(2,3-dihydro-1H-imidazo[1,2-a]benzimidazol-1-yl)ethoxy]-3-(1-phenyl-1H-pyrazol-5-yl)pyridazin-4 (H)-one], the inhibition at 1 µM was 98%. Compound `Cn1c(OCCOc2cn(C3CCC3)nc(-c3ccnn3-c3ccccc3)c2=O)nc2ccccc21` [Example 23, 1-cyclobutyl-5-{2-[(1-methyl-1H-benzimidazol-2-yl)oxy]ethoxy}-3-(1-phenyl-1H-pyrazol-5-yl)pyridazin-4(1H)-one] has an inhibition at 1 µM of 100%. `O=c1c(OCCCc2cn3ccccc3n2)cn(C2CCC2)nc1-c1ccnn1-c1ccccc1` [Example 24, 1-cyclobutyl-5-(3-imidazo[1,2-a]pyridin-2-ylpropoxy)-3-(1-phenyl-1H-pyrazol-5-yl)pyridazin-4(1H)-one] was tested, and the inhibition at 1 µM was 100%. For `Cn1c(CCCOc2cn(CC(F)(F)F)nc(-c3ccnn3-c3ccccc3)c2=O)nc2ccccc21` [Example 25, 5-[3-(1-methyl-1H-benzimidazol-2-yl)propoxy]-3-(1-phenyl-1H-pyrazol-5-yl)-1-(2,2,2-trifluoroethyl)pyridazin-4(1H)-one], the inhibition at 1 µM was 96%. `Cn1c(CCCOc2cn(CC(F)(F)F)nc(-c3ccnn3-c3ccccc3)c2=O)nc2cccnc21` [Example 26, 5-[3-(3-methyl-3H-imidazo[4,5-b]pyridin-2-yl)propoxy]-3-(1-phenyl-1H-pyrazol-5-yl)-1-(2,2,2-trifluoroethyl)pyridazin-4(1H)-one] was tested, and the inhibition at 1 µM was 101%. `O=c1c(OCCN2CCn3c2nc2ccccc23)cn(CC(F)(F)F)nc1-c1ccnn1-c1ccccc1` [Example 27, 5-[2-(2,3-dihydro-1H-imidazo[1,2-a]benzimidazol-1-yl)ethoxy]-3-(1-phenyl-1H-pyrazol-5-yl)-1-(2,2,2-trifluoroethyl)pyridazin-4(1H)-one] showed an inhibition at 1 µM of 98%.
